# What was measured:
# [1] = tested on: Asian Soybean Rust (ASR) (Loxley Al isolate); assay: Growth chamber detached soybean leaf assay, ASR on MON89788; type: in vivo, Phakopsora sp.
# Protocol: Growth chamber and greenhouse assays were conducted to determine if glyphosate treatments (Roundup® WeatherMax) decreased the disease severity of Asian Soybean Rust (ASR) on MON89788. Growth chamber assays were conducted following a detached leaf assay method. Plants of MON89788 were grown in the greenhouse and leaves from the 3rd trifoliate were detached and placed in 6-well trays with water. Five treatments were evaluated: (1) an untreated check inoculated with spores of ASR (Loxley Al isolate); (2) leaf tissue of MON89788 inoculated with ASR spores and treated with glyphosate post-sporulation (13 days after inoculation with spores (DAI)); (3) MON89788 treated with 1× rate (0.75 lb/acre) of Roundup® WeatherMax 5 DAI; (4) MON89788 treated with […] of Roundup® WeatherMax 5 DAI; and (5) MON89788 treated with 3× rate of Roundup® WeatherMax 5 DAI.
# The leaves were rated for disease severity 12 DAI, 20 DAI, and 25 DAI.
# The analysis of the disease progression is illustrated in FIG. 2 and measured as the Area Under Disease Progress Curve (AUDPC) for the same material summarized in FIG. 1. […] The disease progression was reduced for all glyphosate treatments at 5DAI and the 2× rate post-sporulation.
# Asian Soybean Rust (ASR) = assay: Greenhouse assay on intact MON89788 plants, ASR; type: in vivo, Phakopsora sp.
# Protocol: Greenhouse assays on intact MON89788 plants were treated with 1×, 2×, and 3× rates of Roundup® WeatherMax at 6 DBI (days before inoculation) and 9 DAI. Results for this experiment were collected 17 DAI.
# [2] = tested on: Frogeye Leafspot (Cercospora sojina); assay: Greenhouse disease severity on MON89788, Frogeye Leafspot; type: in vivo; parameters: key to Frogeye disease severity (DS): 1 = no symptoms; 2 = ≤10% leaf infected … 9 = >85% leaf infected; details: for Frogeye disease severity (DS): 1-9 scale
# Protocol: (§1) Soybean plants comprising event MON89788 and grown under standard conditions in a greenhouse were treated with 1×, 2× or 3× concentrations of glyphosate and inoculated with the plant pathogens 1 DBI, 1 DAI and 4 DAI. Disease symptoms for each disease was rated on a 1-9 scale as an approximate measure of disease severity (DS)occurring on the leaves, 1 is no symptoms, 2 is up to 10% of the leaf infected, 3 is 11-20% of the leaf infected, 4 is 21-35%, 5 is 36-50%, 7 is 66-75%, 8 is 76-85%, 9 is greater than 85% of the leaf is infected and showing disease symptoms.
# Cercospora leaf blight = assay: Greenhouse disease severity on MON89788, Cercospora leaf blight; type: in vivo, Cercospora carotae; parameters: key to Cercospora Leaf Blight disease severity (DS): 1 = no symptoms; 2 = ≤10% leaf infected … 9 = >85% leaf infected; details: 1-9 scale
# Protocol: as §1
# [3] = tested on: Cercospora leaf blight (Cercospora carotae); assay: as above; type: in vivo; parameters: key to Cercospora Leaf Blight disease severity (DS): 1 = no symptoms; 2 = ≤10% leaf infected … 9 = >85% leaf infected; details: 1×, 2× or 3×; 1 DBI, 1 DAI and 4 DAI
# Protocol: as §1
# powdery mildew disease = assay: Powdery mildew disease control on MON89788; type: in vivo, Microsphaera diffusa; details: for DS Mean (powdery mildew): treated 1 DBI, no spray control 4.65
# Source text: The mean disease severity score for the no spray control was 4.65, the glyphosate treatments provided a high level of disease control at all treatment rates.
# [4] = tested on: Aerial blight (Rhizoctonia solani); assay: Greenhouse disease severity on MON89788, Aerial blight; type: in vivo; details: for Aerial Blight disease severity (DS): 1-9 scale
# Protocol: as §1
# [5] = 1×, 2× or 3×, 1 DBI, 1 DAI and 4 DAI
smiles,measurement,setting,value
"O=C(O)CNCP(=O)(O)O [glyphosate, N-phosphonomethylglycine]",Area Under Disease Progress Curve (AUDPC),[1]; 2× rate,lower compared to other treatments
same,disease progression (AUDPC),[1]; 2× rate post-sporulation,reduced
same,Area Under Disease Progress Curve (AUDPC),[1]; 3× rate,lower compared to other treatments
same,disease progression (AUDPC),[1]; all glyphosate treatments at 5DAI,reduced
same,ASR sporulation,[1]; post-disease development/sporulation treatments,appeared to arrest sporulation
same,levels of ASR infection and disease,"Asian Soybean Rust (ASR); 1×, 2×, 3× at 6 DBI or 9 DAI, all except 1× at 6 DBI, collected 17 DAI",lower levels of ASR infection and disease
same,rate of ASR disease development,Asian Soybean Rust (ASR); pre-inoculation treatments,appeared to slow the rate of disease development
same,levels of ASBR,Asian Soybean Rust (ASR); split treatments (1× pre+1× post-inoculation),reduced levels of ASBR similar to single 2× and 3× pre- or post-inoculation
same,Frogeye disease severity (DS),"[2]; 1 day post inoculation, 1X",3.4
same,Frogeye disease severity (DS),"[2]; 1 day post inoculation, 2X",3.3
same,Frogeye disease severity (DS),"[2]; 1 day post inoculation, 3X",7.2
same,Frogeye disease severity (DS),"[2]; 1 day pre inoculation, 1X",2.7
same,Frogeye disease severity (DS),"[2]; 1 day pre inoculation, 2X",3.7
same,Frogeye disease severity (DS),"[2]; 1 day pre inoculation, 3X",3.8
same,Frogeye disease severity (DS),"[2]; 4 days post inoculation, 1X",3.7
same,Frogeye disease severity (DS),"[2]; 4 days post inoculation, 2X",5.3
same,Frogeye disease severity (DS),"[2]; 4 days post inoculation, 3X",2.3
same,"disease severity control, Frogeye Leafspot",[2]; [5],preventative and curative disease severity control
same,Cercospora Leaf Blight disease severity (DS),"Cercospora leaf blight; 1 day post inoculation, 1X",2.8
same,Cercospora Leaf Blight disease severity (DS),"Cercospora leaf blight; 1 day post inoculation, 2X",6.4
same,Cercospora Leaf Blight disease severity (DS),"Cercospora leaf blight; 1 day post inoculation, 3X",6.5
same,Cercospora Leaf Blight disease severity (DS),"Cercospora leaf blight; 1 day pre inoculation, 1X",2.8
same,Cercospora Leaf Blight disease severity (DS),"Cercospora leaf blight; 1 day pre inoculation, 2X",6.1
same,Cercospora Leaf Blight disease severity (DS),"Cercospora leaf blight; 1 day pre inoculation, 3X",3.8
same,Cercospora Leaf Blight disease severity (DS),"Cercospora leaf blight; 4 days post inoculation, 1X",3.3
same,Cercospora Leaf Blight disease severity (DS),"Cercospora leaf blight; 4 days post inoculation, 2X",3.2
same,Cercospora Leaf Blight disease severity (DS),"Cercospora leaf blight; 4 days post inoculation, 3X",4.9
same,"disease severity control, Cercospora leaf blight",[3],preventative and curative disease severity control
same,DS Mean (powdery mildew),powdery mildew disease; 0.75 lb ae/a (1X),1
same,DS Mean (powdery mildew),powdery mildew disease; 1.5 lb ae/a (2X),1
same,DS Mean (powdery mildew),powdery mildew disease; 2.25 lb ae/a (3X),1
same,control of powdery mildew disease,powdery mildew disease; treated 1 DBI with any of the three rates,high level of control
same,Aerial Blight disease severity (DS),"[4]; 1 day post inoculation, 1X",5.0
same,Aerial Blight disease severity (DS),"[4]; 1 day post inoculation, 2X",6.4
same,Aerial Blight disease severity (DS),"[4]; 1 day post inoculation, 3X",6.9
same,Aerial Blight disease severity (DS),"[4]; 1 day pre inoculation, 1X",7.1
same,Aerial Blight disease severity (DS),"[4]; 1 day pre inoculation, 3X",8.0
same,Aerial Blight disease severity (DS),"[4]; 4 days post inoculation, 1X",7.6
same,Aerial Blight disease severity (DS),"[4]; 4 days post inoculation, 2X",4.4
same,Aerial Blight disease severity (DS),"[4]; 4 days post inoculation, 3X",7.9
same,"disease severity control, Aerial blight",[4]; [5],preventative and curative disease severity control

# From patent publication US7608761B2, “Method for disease control in MON89788 soybean” (Monsanto Technology LLC, priority 2005, dated 2009)
